Columns and labels:
Format in all cases: binding, guinea pig
anti-MG-Ins IgG = assay: Fluorescence spectrum of auramine O bound to the anti-MG-Ins IgG; conditions: IgG 1 μM, AO 1 μM, PBS pH 7.2, 25° C., excitation 400 nm; FIG. 14
Experimental: The fluorescence spectrum of AO when AO is bound to the anti-MG-Ins IgG by an antigen-antibody reaction was measured as follows. The anti-MG-Ins IgG and AO were mixed so that the respective concentrations will be 1 μM and 1 μM (using phosphate buffered saline (pH 7.2, PBS) as the solvent). An antigen-antibody reaction was made to proceed by stirring for five minutes at 25° C. Then using the fluorescence spectrophotometer, the fluorescence spectrum emitted from the above-described mixed solution was measured under the conditions of an excitation wavelength of 400 nm, fluorescence wavelength of 450 to 650 nm, and bandpass width being set to 5 nm at both the excitation and fluorescence sides.

anti-MG-Ins Fab [1] = assay: Fluorescence spectrum of malachite green bound to the anti-MG-Ins Fab; conditions: Fab 0.955 μM, MG 0.907 μM, PBS pH 7.2, 25° C., excitation 620 nm; FIG. 11
Experimental: The fluorescence spectrum of MG when MG is bound to the anti-MG-Ins Fab by an antigen-antibody reaction was measured as follows. The anti-MG-Ins Fab and MG were mixed so that the respective concentrations will be 0.955 μM and 0.907 μM (using phosphate buffered saline (pH 7.2, PBS) as the solvent). Then, an antigen-antibody reaction was made to proceed by stirring for five minutes at 25° C. Then using the fluorescence spectrophotometer, the fluorescence spectrum emitted from the above-described mixed solution was measured under the conditions of an excitation wavelength of 620 nm, fluorescence wavelength of 630 to 750 nm, and bandpass width being set to 5 nm at both the excitation and fluorescence sides.
Fluorescence spectra were also measured in the same manner as the above for various MG concentrations in the range of 0 to 0.9 μM with the anti-MG-Ins Fab concentration being set at 1 μM.

anti-MG-Ins Fab [2] = assay: Verification test concerning the reversibility of the antigen-antibody reactions (AO fluorescence)
Experimental: The following experiment was carried out in order to confirm that, when the free insulin concentration in the same sample is varied by repeating the addition of insulin and the addition of anti-porcine insulin IgG (referred to hereinafter as “anti-insulin IgG”) in a solution containing the anti-MG-Ins Fab and auramine O, the measurement values of this invention vary following the variation of the free insulin concentration, that is, the antigen-antibody reactions concerning this invention are reversible and enable analysis in real time. The measurement of fluorescence intensity was carried out under the same measurement conditions as described above in [2-2-1].
First, 2 ml of a PBS solution, containing 2 μM of the anti-MG-Ins Fab and 0.4 μM of auramine O, were prepared. The AO fluorescence intensity was measured upon placing the solution in a cell. The florescence intensity at this time was set to a relative value of 1.
Insulin was then added to the solution in the cell so that the insulin concentration will be 1.26 μM.
A fixed amount (0.135 μM) of the anti-insulin IgG was then added to this solution. […] The AO fluorescence intensity returned to the original value since the anti-insulin IgG and insulin became bonded and free insulin no longer existed in the solution.
When insulin was then added again to this solution so that the insulin concentration will be 2.39 μM.

anti-MG-Ins Fab [3] = assay: Calibration curve: insulin concentration vs MG fluorescence intensity with anti-MG-Ins Fab and malachite green; conditions: 1 μM anti-MG-Ins Fab, 0.4 μM MG, excitation 620 nm, fluorescence 650 nm; FIG. 13
Experimental: A calibration curve, indicating the relationship between the insulin concentration and fluorescence intensity for a fixed amount (1 μM) of the anti-MG-Ins Fab and a fixed amount (0.4 μM) of MG, was prepared as follows. Since the insulin used forms aggregate of a few molecules because of containing zinc, the insulin was dissolved in advance in PB containing SDS at a final concentration of 0.1% to dissociate the aggregate. The insulin solution thus obtained was thereafter run through a gel permeation column (Fast Desaliting Column HR 10/10, made by Pharnacia), equilibrated using PBS. The insulin solution from which SDS was thus removed was used in the following quantification. • (1) The fluorescence spectrophotometer was set to an excitation wavelength of 620 nm and a fluorescence wavelength of 650 nm and the temperature of the cell holder was maintained at a fixed temperature (25° C.). • (2) 2 ml (A=2 ml) of an antibody-dye solution, containing 1 μM (Y=1 μM) of the anti-MG-Ins Fab and 0.4 μM (Z=0.4 μM) of MG, were prepared (with phosphate buffered saline (pH 7.2, PBS) as the solvent) (S101). • (3) The antibody-dye solution thus obtained was placed in a standard fluorescence measurement cell. This cell was set in the fluorescence spectrophotometer. The solution in the cell was stirred for 30 seconds with a micro stirring bar. […]

anti-MG-Ins Fab [4] = assay: Calibration curve: insulin concentration vs AO fluorescence intensity with anti-MG-Ins Fab and auramine O; conditions: 2 μM anti-MG-Ins Fab, 0.4 μM AO, excitation 400 nm, fluorescence 520 nm; FIG. 15
Experimental: A calibration curve was prepared for insulin concentrations in the range of 0 to 7.7 μM in the same manner as described above in [1-10-1] other than the changes of setting the anti-MG-Ins Fab concentration to 2 μM, using 0.4 μM of auramine O in place of 0.4 μM of malachite green, setting the excitation wavelength to 400 nm, and setting the fluorescence wavelength to 520 nm.

Compound: CN(C)c1ccc(C(=N)c2ccc(N(C)C)cc2)cc1 [auramine O]
- fluorescence upon binding with the anti-MG-Ins IgG (anti-MG-Ins IgG): became fluorescent

Compound: CN(C)c1ccc(C(=C2C=CC(=[N+](C)C)C=C2)c2ccccc2)cc1 [malachite green]
- fluorescence upon binding with the anti-MG-Ins Fab (anti-MG-Ins Fab [1]): became fluorescent

Compound: insulin
- relative value of the AO fluorescence intensity (anti-MG-Ins Fab [2]; insulin added again to 2.39 μM): decreased again
- relative value of the AO fluorescence intensity (anti-MG-Ins Fab [2]; insulin added again to 3.37 μM): decreased
- relative value of the AO fluorescence intensity (anti-MG-Ins Fab [2]; insulin added to 1.26 μM, 2 μM anti-MG-Ins Fab, 0.4 μM AO, start value 1): approximately 0.97
- change of malachite green fluorescence intensity with increase of insulin concentration (anti-MG-Ins Fab [3]): enhancement of fluorescence occurs
- change of auramine O fluorescence intensity with increase of insulin concentration (anti-MG-Ins Fab [4]): inhibition of fluorescence occurs
